This passage reports MIC80 results from ChEMBL document CHEMBL1649348, “Antifungal cyclic peptides from Psammosilene tunicoides” (2010).

In brackets after ≈: the same amount, converted by molar mass. Peptide text beside a SMILES is read from it.

Assay type in all cases: functional
One assay relates to Candida parapsilosis. As to the kind of experiment: Antifungal activity against Candida parapsilosis after 24 hrs to 1 week by two fold dilution method. To be noted: Lodderomyces parapsilosis.
In the next assay the test system is Candida tropicalis. As to the kind of experiment: Antifungal activity against Candida tropicalis after 24 hrs to 1 week by two fold dilution method.
The test system of assay [1] is Candida albicans. Kind of assay: Antifungal activity against Candida albicans SC5314 after 24 hrs to 1 week by two fold dilution method.
Assay [2] has as its system Candida albicans. As to the kind of experiment: Antifungal activity against Candida albicans Y0109 after 24 hrs to 1 week by two fold dilution method.
Another assay has as its system Cryptococcus neoformans. As to the kind of experiment: Antifungal activity against Cryptococcus neoformans BLS108 after 24 hrs to 1 week by two fold dilution method.

What is called MIC80 is an inhibitory concentration at the 80% level, which refers to growth in some studies and to a panel of isolates in others. A low value points to greater potency. As for `CC[C@H](C)[C@@H]1NC(=O)[C@H](CC(N)=O)NC(=O)[C@H](C(C)C)NC(=O)CNC(=O)[C@H](Cc2c[nH]cn2)NC(=O)[C@H](Cc2c[nH]c3ccccc23)NC(=O)[C@@H]2CCCN2C(=O)[C@@H]2CCCN2C1=O` [TUNICYCLIN D] (cyclo(GVNIPPWH)), the MIC80 worked out at 1 µg/mL (≈ 1.11 µM) in the assay on Candida parapsilosis; 0.25 µg/mL (≈ 0.277 µM) in the assay on Candida tropicalis; 4 µg/mL (≈ 4.44 µM) against Candida albicans [1]; 16 µg/mL (≈ 17.8 µM) in the assay on Candida albicans [2]; 1 µg/mL (≈ 1.11 µM) against Cryptococcus neoformans.
